From the NIST ThermoML archive (doi:10.1016/j.fluid.2013.12.017)

Test: molar heat capacity at constant pressure
Settings: 101 kPa, Liquid, Small sample (50 mg) DSC

CCC(N)(CO)CO [2-amino-2-ethyl-1,3-propanediol]
Settings | molar heat capacity at constant pressure [J/K/mol]
303.15 K | 367.5
308.15 K | 370.5
313.15 K | 374.1
318.15 K | 378
323.15 K | 381.5
328.15 K | 385.8
333.15 K | 389.9
338.15 K | 393.9
343.15 K | 398.6
348.15 K | 403.1
353.15 K | 408.2
